Literature values, collected in paper PMC9851200, “Multiparameter phenotypic screening for endogenous TFEB and TFE3 translocation identifies novel chemical series modulating lysosome function” (Autophagy, 2022).

What was measured:
[1] = target: T1, kinases (KINOMEscan panel) (Homo sapiens, UniProt Q56UN5); design: method as in original PKIS2 published data; details: Published KINOMEscan; ref original PKIS2 published data; cited from earlier work
T1 sequence (Q56UN5 1-1328): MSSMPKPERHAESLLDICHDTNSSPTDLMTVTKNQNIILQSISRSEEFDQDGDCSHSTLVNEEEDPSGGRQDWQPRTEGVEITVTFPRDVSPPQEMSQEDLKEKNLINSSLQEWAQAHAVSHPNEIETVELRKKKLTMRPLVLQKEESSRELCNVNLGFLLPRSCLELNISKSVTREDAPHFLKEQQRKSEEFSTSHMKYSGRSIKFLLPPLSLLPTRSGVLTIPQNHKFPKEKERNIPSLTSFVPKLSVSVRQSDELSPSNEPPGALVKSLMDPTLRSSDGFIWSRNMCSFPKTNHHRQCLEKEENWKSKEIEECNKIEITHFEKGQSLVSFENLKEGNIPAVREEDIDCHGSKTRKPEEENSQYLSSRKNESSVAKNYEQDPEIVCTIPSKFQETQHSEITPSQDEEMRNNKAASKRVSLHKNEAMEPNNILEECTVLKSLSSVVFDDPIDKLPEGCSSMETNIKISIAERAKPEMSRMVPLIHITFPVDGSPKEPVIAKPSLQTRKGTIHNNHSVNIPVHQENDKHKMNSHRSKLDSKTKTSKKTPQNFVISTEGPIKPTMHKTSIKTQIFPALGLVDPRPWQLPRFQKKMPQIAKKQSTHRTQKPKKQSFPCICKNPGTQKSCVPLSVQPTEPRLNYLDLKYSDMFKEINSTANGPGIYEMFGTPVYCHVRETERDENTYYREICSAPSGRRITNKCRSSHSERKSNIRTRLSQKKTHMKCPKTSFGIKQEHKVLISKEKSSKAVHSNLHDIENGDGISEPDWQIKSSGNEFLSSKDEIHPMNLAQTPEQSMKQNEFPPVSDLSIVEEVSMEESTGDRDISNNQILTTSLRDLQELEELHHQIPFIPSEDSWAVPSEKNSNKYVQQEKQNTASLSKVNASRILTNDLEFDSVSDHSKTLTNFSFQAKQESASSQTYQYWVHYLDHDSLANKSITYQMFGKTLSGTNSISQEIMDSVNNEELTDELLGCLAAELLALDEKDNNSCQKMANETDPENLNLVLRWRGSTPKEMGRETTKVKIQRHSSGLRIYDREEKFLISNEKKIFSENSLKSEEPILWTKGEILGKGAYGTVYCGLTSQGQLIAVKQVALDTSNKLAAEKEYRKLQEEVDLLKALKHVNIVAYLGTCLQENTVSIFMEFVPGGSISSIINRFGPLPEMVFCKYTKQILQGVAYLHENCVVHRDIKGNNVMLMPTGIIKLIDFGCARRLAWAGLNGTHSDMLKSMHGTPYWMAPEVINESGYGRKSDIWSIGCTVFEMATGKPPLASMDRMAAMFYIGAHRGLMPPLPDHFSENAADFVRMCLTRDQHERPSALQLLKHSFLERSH

[2] = target: T2, kinases (KINOMEscan panel) (Homo sapiens, UniProt Q8TF76); design: method as in original PKIS2 published data; details: HASPIN; Published KINOMEscan; ref original PKIS2 published data; cited from earlier work
T2 sequence (Q8TF76 1-798): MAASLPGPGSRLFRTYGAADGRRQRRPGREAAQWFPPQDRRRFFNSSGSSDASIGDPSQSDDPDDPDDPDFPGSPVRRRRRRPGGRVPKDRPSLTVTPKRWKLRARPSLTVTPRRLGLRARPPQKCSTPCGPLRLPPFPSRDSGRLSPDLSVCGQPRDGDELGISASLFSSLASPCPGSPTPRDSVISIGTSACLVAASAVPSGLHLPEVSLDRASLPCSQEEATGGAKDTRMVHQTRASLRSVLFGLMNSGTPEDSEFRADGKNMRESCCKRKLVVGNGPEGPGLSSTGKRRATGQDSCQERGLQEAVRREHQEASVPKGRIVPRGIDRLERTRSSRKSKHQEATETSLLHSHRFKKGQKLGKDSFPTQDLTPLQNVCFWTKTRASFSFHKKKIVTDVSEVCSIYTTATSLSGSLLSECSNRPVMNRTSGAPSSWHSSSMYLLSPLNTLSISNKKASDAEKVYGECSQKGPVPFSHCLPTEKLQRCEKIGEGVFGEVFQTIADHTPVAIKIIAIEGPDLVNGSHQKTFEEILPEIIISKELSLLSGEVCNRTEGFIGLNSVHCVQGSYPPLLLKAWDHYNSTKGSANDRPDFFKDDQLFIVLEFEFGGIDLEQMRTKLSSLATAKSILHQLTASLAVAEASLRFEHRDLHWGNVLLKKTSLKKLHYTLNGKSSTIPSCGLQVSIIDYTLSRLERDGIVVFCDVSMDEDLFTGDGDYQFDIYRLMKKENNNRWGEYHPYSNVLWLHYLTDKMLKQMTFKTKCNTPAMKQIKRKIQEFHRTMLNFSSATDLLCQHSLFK

## Cc1cccc(-c2nc(Nc3ccncc3)c3ccccc3n2)n1 [NK215]
[1]
  KINOMEscan MAP3K19: 0
[2]
  KINOMEscan HASPIN: 26
